Measurements reported in US20170231949A1, “CELL REPAIR AGENT AND DISINFECTION SYSTEM” (priority 2014, published 2017).

Legend:
Format in all cases: cell-based
[1] = test system: mouse fibroblasts in growth phase; test: Tests 4, 6, 7, 8: post-treatment after acidic electrolyzed water, degree of cell proliferation by MTT method; conditions: 24 hours culture
Experimental: (§1) Similarly to Test 1, mouse fibroblasts in growth phase were treated with four-fold-diluted acidic electrolyzed water and undiluted acidic electrolyzed water for 30 seconds. After washing with phosphate-buffered saline, 100 μl of 140 mM DMSO or 1 mg/ml proanthocyanidin prepared with serum-free DMEM was added to each well, and then cells were cultured for 30 minutes under conditions of 37° C. and 5% CO2. After washing with PBS, fresh medium was added, and then the degree of cell proliferation after 24 hours of culture under conditions of 37° C. and 5% CO2 was determined by the MTT method. In addition, a significant difference between groups was tested by Tukey-Krammer's multiple comparison test (multiple comparative analysis).
as §1, with “4,” for “1,”, “PBS,” for “phosphate-buffered saline,”, “of” for “of 140 mM DMSO or”, “(+)-catechin (Tokyo Chemical Industry Co., Ltd.)” for “proanthocyanidin”, “followed by” for “and then cells were cultured for”, “minutes of culture” for “minutes”
Similarly to Test 4, mouse fibroblasts in growth phase were treated with undiluted acidic electrolyzed water for 30 seconds. After washing with PBS, 100 μl of 1 mg/ml chlorogenic acid (Sigma-Aldrich), caffeic acid (Tokyo Chemical Industry Co., Ltd.) or gallic acid (Tokyo Chemical Industry Co., Ltd.) prepared with serum-free DMEM was added to each well, followed by 5 or 30 minutes of culture under conditions of 37° C. and 5% CO2. After washing with PBS, fresh medium was added, and then the degree of cell proliferation after 24 hours of culture under conditions of 37° C., 5% CO2 was determined by the MTT method. In addition, a significant difference between groups was tested by Tukey-Krammer's multiple comparison test (multiple comparative analysis).
Similarly to Test 4, mouse fibroblasts in growth phase were treated with undiluted acidic electrolyzed water for 30 seconds. After washing with PBS, 100 μl of 1 mg/ml proanthocyanidin prepared with serum-free DMEM was added to each well, and the resultants were each left to sit at room temperature for 1 minute and 5 minutes. After washing with PBS, fresh medium was added, and then the degree of cell proliferation after 24 hours of culture under conditions of 37° C. and 5% CO2 was determined by the MTT method. In addition, a significant difference between groups was tested by Tukey-Krammer's multiple comparison test (multiple comparative analysis).

[2] = test system: mouse fibroblasts in stationary phase; test: Test 3: impact of DMSO and proanthocyanidin on intracellular ROS levels increased by acidic electrolyzed water; conditions: four-fold-diluted or undiluted AEW 30 seconds, then 140 mM DMSO or 1 mg/ml proanthocyanidin, 1 hour
Experimental: Specifically, 100 μl of 1 mM 2',7'-dichlorodihydrofluorescin Diacetate (DCFH-DA) dissolved in serum-free medium (DMEM only) was added to each well, and then cells were cultured for 1 hour under conditions of 37° C. and 5% CO2. After culture, washing with phosphate-buffered saline was performed, 100 μl of 2× Cell Lysis Buffer (Cell Biolabs) and 100 μl of serum-free DMEM were added, and then the resultants were left to stand for 5 minutes. 150 μl of the resultants was transferred from each well to a black 96-well microplate, fluorescence intensities were measured at an excitation wavelength of 450 nm and a fluorescence wavelength of 530 nm using a microplate reader (“FilterMaxTM F5 Multi-Mode Microplate Reader”, Molecular Devices). A standard curve was prepared using 2',7'-dichlorodihydrofluorescein (DCF), and intracellular ROS levels were represented by DCF equivalents (nM). In addition, a significant difference to the average value of each control group (control) was tested by Dunnett's multiple comparison test (multiple comparative analysis). Similarly to Test 2, mouse fibroblasts in stationary phase were treated with four-fold-diluted acidic electrolyzed water and undiluted acidic electrolyzed water for 30 seconds. […] After culture, similarly to Test 2, intracellular ROS levels were determined.

[3] = test system: human gingival fibroblasts in growth phase; test: Test 5: post-treatment after acidic electrolyzed water, degree of cell proliferation by MTT method; conditions: four-fold-diluted or undiluted AEW 30 seconds, then 140 mM DMSO or 1 mg/ml proanthocyanidin for 30 minutes; 24 hours culture
Experimental: A test similar to Test 4 was conducted for human gingival fibroblasts in growth phase. First, human gingival fibroblasts (purchased from Primary Cell Co., Ltd.) were cultured in a 25 cm^2 flask under conditions of 37° C. and 5% CO2, and then a cell suspension was prepared similarly to the case of mouse fibroblasts in medium to a cell density of 2×10^4 cells/ml. 100 μl each of the cell suspension was seeded to each well of a 96-well microplate.

[4] = undiluted AEW 30 seconds, then 1 mg/ml test substance for 5 or 30 minutes

For `Oc1cc(O)c2c(c1)O[C@H](c1ccc(O)c(O)c1)[C@@H](O)C2` [(+)-catechin], the “cell proliferation state (degree of cell proliferation, MTT)” value (“cell proliferation state” for short) ([1]; four-fold-diluted and undiluted AEW 30 seconds, then 1 mg/ml (+)-catechin for 30 minutes) was “significantly improved”.
`C[S+](C)[O-]` [DMSO, dimethyl sulfoxide] was tested, and the “ROS level increased by acidic electrolyzed water” value [2] was “significantly decreased”, the “cell proliferation state” value ([1]; four-fold-diluted and undiluted AEW 30 seconds, then 140 mM DMSO or 1 mg/ml proanthocyanidin for 30 minutes) was “no change” and the “cell proliferation state” value [3] was “no change”.
With `O=C(O)/C=C/c1ccc(O)c(O)c1` [caffeic acid] the “cell proliferation state” value [1, 4] was “significantly improved”.
`O=C(/C=C/c1ccc(O)c(O)c1)O[C@@H]1C[C@](O)(C(=O)O)C[C@@H](O)[C@H]1O` [chlorogenic acid] was tested, and the “cell proliferation state” value [1, 4] was “significantly improved”.
With `O=C(O)c1cc(O)c(O)c(O)c1` [gallic acid] the “cell proliferation state” value [1, 4] was “significantly improved”.
